Consider 18 compounds from US10670605B2, “Cysteine reactive probes and uses thereof” (The Scripps Research Institute, priority 2015, dated 2020).

Common to all, as to test: Competitive isoTOP-ABPP, cell lysates
What all share (assay type): binding

Test [1] deals with T1, NCF1 C378 (P14598) (Homo sapiens, UniProt P14598).
T1 sequence (P14598 1-390): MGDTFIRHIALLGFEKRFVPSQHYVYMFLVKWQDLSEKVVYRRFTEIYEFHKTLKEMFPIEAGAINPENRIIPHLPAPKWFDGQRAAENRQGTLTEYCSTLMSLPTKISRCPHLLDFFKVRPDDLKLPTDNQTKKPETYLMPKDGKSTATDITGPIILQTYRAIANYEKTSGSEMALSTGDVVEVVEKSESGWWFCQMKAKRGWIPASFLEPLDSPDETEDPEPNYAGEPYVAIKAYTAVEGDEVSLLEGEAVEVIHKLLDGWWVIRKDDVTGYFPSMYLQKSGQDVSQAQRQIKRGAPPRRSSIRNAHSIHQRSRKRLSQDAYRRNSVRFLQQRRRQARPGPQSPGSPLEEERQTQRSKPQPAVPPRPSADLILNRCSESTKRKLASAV

Test [2] concerns the target T2, UBA7 C599 (P41226) (Homo sapiens, UniProt P41226).
T2 sequence (P41226 1-1012): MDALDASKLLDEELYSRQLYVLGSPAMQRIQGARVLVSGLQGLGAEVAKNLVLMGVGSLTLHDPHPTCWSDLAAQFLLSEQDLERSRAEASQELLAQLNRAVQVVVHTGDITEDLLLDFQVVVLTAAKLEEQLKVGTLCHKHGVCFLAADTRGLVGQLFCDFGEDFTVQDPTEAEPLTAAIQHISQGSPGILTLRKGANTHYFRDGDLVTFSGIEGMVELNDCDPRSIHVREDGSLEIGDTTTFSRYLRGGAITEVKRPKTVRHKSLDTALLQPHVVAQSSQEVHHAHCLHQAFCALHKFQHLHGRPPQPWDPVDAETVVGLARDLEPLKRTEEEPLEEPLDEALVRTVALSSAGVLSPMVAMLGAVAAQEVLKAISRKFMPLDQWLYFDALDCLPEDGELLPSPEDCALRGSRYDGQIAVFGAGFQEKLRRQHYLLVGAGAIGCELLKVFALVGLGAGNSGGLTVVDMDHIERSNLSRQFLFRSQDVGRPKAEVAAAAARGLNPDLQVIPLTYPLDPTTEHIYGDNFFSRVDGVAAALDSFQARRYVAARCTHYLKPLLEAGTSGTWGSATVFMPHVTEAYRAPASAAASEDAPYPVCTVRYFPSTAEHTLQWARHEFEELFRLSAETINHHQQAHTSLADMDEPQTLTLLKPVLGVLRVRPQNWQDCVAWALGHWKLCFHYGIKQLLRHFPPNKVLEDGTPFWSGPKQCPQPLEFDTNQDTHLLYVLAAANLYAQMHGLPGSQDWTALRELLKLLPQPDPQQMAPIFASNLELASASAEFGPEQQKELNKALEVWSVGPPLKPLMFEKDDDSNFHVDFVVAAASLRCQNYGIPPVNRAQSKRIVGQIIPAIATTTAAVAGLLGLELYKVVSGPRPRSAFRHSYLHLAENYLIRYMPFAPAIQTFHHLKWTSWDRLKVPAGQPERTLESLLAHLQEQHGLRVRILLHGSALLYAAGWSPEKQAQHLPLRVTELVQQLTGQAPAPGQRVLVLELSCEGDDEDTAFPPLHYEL

Test [3] concerns the target T3, CASP2 C370 (P42575) (Homo sapiens, UniProt P42575).
T3 sequence (P42575 1-452): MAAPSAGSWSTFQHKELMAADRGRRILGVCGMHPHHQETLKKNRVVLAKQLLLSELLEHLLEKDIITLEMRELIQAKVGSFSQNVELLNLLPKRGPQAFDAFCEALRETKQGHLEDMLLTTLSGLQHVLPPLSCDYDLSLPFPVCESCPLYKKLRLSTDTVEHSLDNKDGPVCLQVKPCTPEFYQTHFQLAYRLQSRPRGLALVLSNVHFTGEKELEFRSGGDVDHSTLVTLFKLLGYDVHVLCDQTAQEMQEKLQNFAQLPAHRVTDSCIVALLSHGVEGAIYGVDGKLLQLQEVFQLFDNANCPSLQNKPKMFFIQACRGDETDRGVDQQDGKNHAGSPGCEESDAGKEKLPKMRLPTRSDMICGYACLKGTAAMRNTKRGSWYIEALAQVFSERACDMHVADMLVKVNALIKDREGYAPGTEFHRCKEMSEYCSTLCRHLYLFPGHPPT
The following applies: for isoTOP-ABPP reactivity ratio, P42575_C370: 500 μm, in-vitro_ramos.

On to `COc1ccc(C2CC(c3cccs3)=NN2C(=O)CCl)cc1` (centres unmarked) [compound 4], for which the “R value (DMSO/fragment)” value is on record as 1.4 in test [1] (250 μM, in vitro, Ramos) and 20.0 in test [2] (250 μM, in vitro, Ramos).

Consider `O=C(CCl)Nc1ccccc1C1CCCCCC1` [compound 35], for which the “isoTOP-ABPP reactivity ratio, P41226_C599” value in test [2] (500 μm, in-vitro_ramos) was found to be 1.2.

Take `O=C(CCl)N1CCN(S(=O)(=O)c2ccccc2F)CC1` [compound 10]: the “isoTOP-ABPP ratio, P42575_C370” value in test [3] (500 μM, invitro, ramos) amounted to 1.2. In test [1] (500 μM, invitro, ramos), the “isoTOP-ABPP ratio, P14598_C378” value worked out at 1.1.

As for `CC(C)CCOCCNC(=O)CCl` [compound 27], the “isoTOP-ABPP ratio (reactivity profile), P42575_C370” value in test [3] (500 μm in-vitro ramos_231) was determined as 0.9. In addition, the figures for the “isoTOP-ABPP ratio (reactivity profile), P41226_C599” value in test [2] (500 μm in-vitro ramos) and in test [2] (500 μm in-vitro ramos_231) were 1.3 and 0.7, respectively.

For the compound `O=C(CCl)N1CCC(C(O)(c2ccccc2)c2ccccc2)CC1` [compound 20], the “isoTOP-ABPP ratio (reactivity profile), P41226_C599” value in test [2] (500 μm in-vitro ramos) stood at 12.2; in test [2] (500 μm in-vitro ramos_231), 1.1.

Turning to `CCN(CC)c1ccc(S(N)(=O)=O)cc1NC(=O)CCl` [compound 30], the “isoTOP-ABPP reactivity ratio, P42575_C370” value in test [3] turned out to be 4.1.

Regarding `C=CC(=O)N1CCC(c2noc3ccc(F)cc23)CC1` [compound 37], in test [3], the “isoTOP-ABPP reactivity ratio, P42575_C370” value was 0.7.

Regarding `N#C/C(=C\c1cc(C(F)(F)F)cc(C(F)(F)F)c1)C(N)=O` [compound 23], in test [3] (500 μm in-vitro ramos), the “isoTOP-ABPP ratio (reactivity profile), P42575_C370” value is on record as 2.1. Also, the “isoTOP-ABPP ratio (reactivity profile), P41226_C599” value in test [2] (500 μm in-vitro ramos) was determined as 3.2.

For the compound `C=CC(=O)Nc1cc(C)c(Br)cc1C` [compound 40], in test [3], the “isoTOP-ABPP reactivity ratio, P42575_C370” value is 2.7.

Consider `O=C(CCl)NC12CC3CC(CC(C3)C1)C2` [compound 21], for which, in test [2] (500 μm in-vitro ramos), the “isoTOP-ABPP ratio (reactivity profile), P41226_C599” value turned out to be 2.5.

For `COc1ccc2c(c1)CCCN2C(=O)CCl` [compound 2], the “R value (DMSO/fragment)” value in test [1] (500 μM, invitro, ramos) was determined as 4.4.

For `Cn1cc(S(=O)(=O)N2CCOCC2)cc1C(=O)NC(=O)CCl` [compound 11], in test [3] (500 μM, invitro, ramos), the “isoTOP-ABPP ratio, P42575_C370” value was 6.0. Besides, in test [2] (500 μM, invitro, ramos), the “isoTOP-ABPP ratio, P41226_C599” value is reported as 1.9.

Regarding `O=C(CCl)NCCc1c[nH]c2ccccc12` [compound 13], the “isoTOP-ABPP ratio, P14598_C378” value in test [1] (500 μM, invitro, ramos) was found to be 0.7.

As to `Cc1ccc(C=C(C#N)C(=O)NCCN2CCOCC2)cc1` [compound 41], the “isoTOP-ABPP reactivity ratio, P42575_C370” value in test [3] came out at 1.4.

As for `CC(Br)C(=O)Nc1cc(C(F)(F)F)cc(C(F)(F)F)c1` (centres unmarked) [compound 24], in test [3] (500 μm in-vitro ramos), the “isoTOP-ABPP ratio (reactivity profile), P42575_C370” value was 2.2.

As to `O=C(CCl)Nc1cc(C(F)(F)F)cc(C(F)(F)F)c1` [compound 3], the “R value (DMSO/fragment)” value in test [3] (500 μM, invitro, ramos) stood at 7.4; in test [1] (500 μM, invitro, ramos), 2.1.

With `COc1cc(NC(=O)CCl)cc(OC)c1` [compound 43], the “isoTOP-ABPP reactivity profile ratio, P14598_C378” value in test [1] (500 μm, in-vitro_ramos) stood at 1.2.

Turning to `C=CC(=O)N(c1ccccc1)c1ccc(Br)cc1` [compound 5], in test [1] (500 μM, invitro, ramos), the “isoTOP-ABPP ratio, P14598_C378” value is listed as 4.0.
